Data published in PubChem BioAssay (NCI).
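A five-concentration, 48-hour dose response in 96-well plates underlies each endpoint, interpolated linearly between surrounding concentrations. Here, GI50 denotes the concentration required for 50% inhibition of growth. The concentration for full growth arrest is given as TGI.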

Tests used:
Experiment in all cases: DTP human tumour cell line panel, 48 h
786-0 renal = tested on: 786-0 renal
A498 renal = tested on: A498 renal
A549 NSCLC = tested on: A549 NSCLC
ACHN renal = tested on: ACHN renal
BT-549 breast = tested on: BT-549 breast
CAKI-1 renal = tested on: CAKI-1 renal
CCRF-CEM leukemia = tested on: CCRF-CEM leukemia
COLO 205 colon = tested on: COLO 205 colon
DU-145 prostate = tested on: DU-145 prostate
EKVX NSCLC = tested on: EKVX NSCLC
HCC-2998 colon = tested on: HCC-2998 colon
HCT-116 colon = tested on: HCT-116 colon
HCT-15 colon = tested on: HCT-15 colon
HL-60(TB) leukemia = tested on: HL-60(TB) leukemia
HOP-62 NSCLC = tested on: HOP-62 NSCLC
HOP-92 NSCLC = tested on: HOP-92 NSCLC
HS 578T breast = tested on: HS 578T breast
HT29 colon = tested on: HT29 colon
K-562 leukemia = tested on: K-562 leukemia
KM12 colon = tested on: KM12 colon
LOX IMVI melanoma = tested on: LOX IMVI melanoma
M14 melanoma = tested on: M14 melanoma
MALME-3M melanoma = tested on: MALME-3M melanoma
MCF7 breast = tested on: MCF7 breast
MDA-MB-231 breast = tested on: MDA-MB-231 breast
MDA-MB-435 = tested on: MDA-MB-435
MOLT-4 leukemia = tested on: MOLT-4 leukemia
NCI-H226 lung = tested on: NCI-H226 lung
NCI-H23 lung = tested on: NCI-H23 lung
NCI-H460 lung = tested on: NCI-H460 lung
NCI-H522 lung = tested on: NCI-H522 lung
NCI/ADR-RES ovarian = tested on: NCI/ADR-RES ovarian
OVCAR-3 ovarian = tested on: OVCAR-3 ovarian
OVCAR-4 ovarian = tested on: OVCAR-4 ovarian
OVCAR-5 ovarian = tested on: OVCAR-5 ovarian
OVCAR-8 ovarian = tested on: OVCAR-8 ovarian
PC-3 prostate = tested on: PC-3 prostate
RPMI-8226 leukemia = tested on: RPMI-8226 leukemia
RXF 393 renal = tested on: RXF 393 renal
SF-268 CNS = tested on: SF-268 CNS
SF-295 CNS = tested on: SF-295 CNS
SF-539 CNS = tested on: SF-539 CNS
SK-MEL-2 melanoma = tested on: SK-MEL-2 melanoma
SK-MEL-28 melanoma = tested on: SK-MEL-28 melanoma
SK-MEL-5 melanoma = tested on: SK-MEL-5 melanoma
SK-OV-3 ovarian = tested on: SK-OV-3 ovarian
SN12C renal = tested on: SN12C renal
SNB-19 CNS = tested on: SNB-19 CNS
SNB-75 CNS = tested on: SNB-75 CNS
SR leukemia = tested on: SR leukemia
SW-620 colon = tested on: SW-620 colon
T-47D breast = tested on: T-47D breast
TK-10 renal = tested on: TK-10 renal
U251 CNS = tested on: U251 CNS
UACC-257 melanoma = tested on: UACC-257 melanoma
UACC-62 melanoma = tested on: UACC-62 melanoma
UO-31 renal = tested on: UO-31 renal

SMILES: COc1cc2c(/C=C3\C(=O)Nc4ccc(Br)cc43)c(Cl)n(C)c2cc1C
- GI50 (786-0 renal): 0.998 µM
- TGI (786-0 renal): 3.94 µM
- GI50 (A498 renal): 0.419 µM
- TGI (A498 renal): 1.62 µM
- GI50 (A549 NSCLC): 2.56 µM
- TGI (A549 NSCLC): 14.5 µM
- GI50 (ACHN renal): 2.26 µM
- TGI (ACHN renal): 11.2 µM
- GI50 (BT-549 breast): 1.49 µM
- TGI (BT-549 breast): 4.77 µM
- GI50 (CAKI-1 renal): 2.26 µM
- TGI (CAKI-1 renal): 7.3 µM
- GI50 (CCRF-CEM leukemia): 2.94 µM
- TGI (CCRF-CEM leukemia): 23.2 µM
- GI50 (COLO 205 colon): 1.96 µM
- TGI (COLO 205 colon): 5.43 µM
- GI50 (DU-145 prostate): 2.04 µM
- TGI (DU-145 prostate): 4.36 µM
- GI50 (EKVX NSCLC): 3.76 µM
- TGI (EKVX NSCLC): 34.1 µM
- GI50 (HCC-2998 colon): 1.66 µM
- TGI (HCC-2998 colon): 4.62 µM
- GI50 (HCT-116 colon): 1.61 µM
- TGI (HCT-116 colon): 7.17 µM
- GI50 (HCT-15 colon): 1.92 µM
- TGI (HCT-15 colon): 8.06 µM
- GI50 (HL-60(TB) leukemia): 3.09 µM
- TGI (HL-60(TB) leukemia): 16.9 µM
- GI50 (HOP-62 NSCLC): 0.813 µM
- TGI (HOP-62 NSCLC): 4.47 µM
- GI50 (HOP-92 NSCLC): 2.37 µM
- TGI (HOP-92 NSCLC): 17.9 µM
- GI50 (HS 578T breast): 0.517 µM
- TGI (HS 578T breast): 3.46 µM
- GI50 (HT29 colon): 1.98 µM
- TGI (HT29 colon): 6.83 µM
- GI50 (K-562 leukemia): 1.96 µM
- TGI (K-562 leukemia): > 29.2 µM
- GI50 (KM12 colon): 0.387 µM
- TGI (KM12 colon): 1.88 µM
- GI50 (LOX IMVI melanoma): 1.44 µM
- TGI (LOX IMVI melanoma): 6.7 µM
- GI50 (M14 melanoma): 1.8 µM
- TGI (M14 melanoma): 6.01 µM
- GI50 (MALME-3M melanoma): 2.75 µM
- TGI (MALME-3M melanoma): 10 µM
- GI50 (MCF7 breast): 0.322 µM
- TGI (MCF7 breast): 6.53 µM
- GI50 (MDA-MB-231 breast): 2.63 µM
- TGI (MDA-MB-231 breast): 10.5 µM
- GI50 (MDA-MB-435): 0.249 µM
- TGI (MDA-MB-435): 0.802 µM
- GI50 (MOLT-4 leukemia): 5.63 µM
- TGI (MOLT-4 leukemia): > 27.5 µM
- GI50 (NCI-H226 lung): 1.88 µM
- TGI (NCI-H226 lung): 6.18 µM
- GI50 (NCI-H23 lung): 2.78 µM
- TGI (NCI-H23 lung): 13 µM
- GI50 (NCI-H460 lung): 0.916 µM
- TGI (NCI-H460 lung): 4.69 µM
- GI50 (NCI-H522 lung): 1.66 µM
- TGI (NCI-H522 lung): 4.29 µM
- GI50 (NCI/ADR-RES ovarian): 0.799 µM
- TGI (NCI/ADR-RES ovarian): 3.41 µM
- GI50 (OVCAR-3 ovarian): 1.56 µM
- TGI (OVCAR-3 ovarian): 3.56 µM
- GI50 (OVCAR-4 ovarian): 4.12 µM
- TGI (OVCAR-4 ovarian): 24.8 µM
- GI50 (OVCAR-5 ovarian): 4.11 µM
- TGI (OVCAR-5 ovarian): 15.9 µM
- GI50 (OVCAR-8 ovarian): 5.12 µM
- TGI (OVCAR-8 ovarian): 20.3 µM
- GI50 (PC-3 prostate): 1.17 µM
- TGI (PC-3 prostate): 18.3 µM
- GI50 (RPMI-8226 leukemia): 1.41 µM
- TGI (RPMI-8226 leukemia): 16.6 µM
- GI50 (RXF 393 renal): 1.71 µM
- TGI (RXF 393 renal): 7.33 µM
- GI50 (SF-268 CNS): 1.31 µM
- TGI (SF-268 CNS): 8 µM
- GI50 (SF-295 CNS): 0.327 µM
- TGI (SF-295 CNS): 1.16 µM
- GI50 (SF-539 CNS): 1 µM
- TGI (SF-539 CNS): 4.71 µM
- GI50 (SK-MEL-2 melanoma): 1.74 µM
- TGI (SK-MEL-2 melanoma): 5.7 µM
- GI50 (SK-MEL-28 melanoma): 0.418 µM
- TGI (SK-MEL-28 melanoma): 3.49 µM
- GI50 (SK-MEL-5 melanoma): 1.41 µM
- TGI (SK-MEL-5 melanoma): 2.99 µM
- GI50 (SK-OV-3 ovarian): 3.87 µM
- TGI (SK-OV-3 ovarian): 18.6 µM
- GI50 (SN12C renal): 3.05 µM
- TGI (SN12C renal): 11.4 µM
- GI50 (SNB-19 CNS): 2.57 µM
- TGI (SNB-19 CNS): 48.8 µM
- GI50 (SNB-75 CNS): 1.82 µM
- TGI (SNB-75 CNS): > 25.7 µM
- GI50 (SR leukemia): 1.42 µM
- GI50 (SW-620 colon): 3.09 µM
- TGI (SW-620 colon): 15.4 µM
- GI50 (T-47D breast): 30.8 µM
- TGI (T-47D breast): > 100 µM
- GI50 (TK-10 renal): 2.72 µM
- TGI (TK-10 renal): 9.19 µM
- GI50 (U251 CNS): 0.675 µM
- TGI (U251 CNS): 6.69 µM
- GI50 (UACC-257 melanoma): 7.56 µM
- TGI (UACC-257 melanoma): 31 µM
- GI50 (UACC-62 melanoma): 0.618 µM
- TGI (UACC-62 melanoma): 12.9 µM
- GI50 (UO-31 renal): 2.46 µM
- TGI (UO-31 renal): 11.3 µM
